# Measured values published in US11878973B2, “Bicyclic compounds and their uses” (NOVARTIS AG, priority 2021, dated 2024).
# Where two headings read alike, the source gives them in different places.
# Tests used:
# WRN helicase = WRN helicase (Homo sapiens (Human), UniProt Q14191); experiment: In vitro enzymatic activity assay on WRN helicase (DNA dependent ATPase assay, ADP-Glo); type: biochemical; conditions: geometric means of at least 2 determinations; read-out: WRN ATPase Activity (IC50)
# How it was run: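 DNA-dependent ATPase activity was measured by ADP-Glo luminescent ADP detection after a 30-min room-temperature reaction. The reaction contained 10 nM WRN (residues N517-P1238), 0.2 nM FLAP26 and 300 µM ATP at pH 7.5 with 2 mM MgCl2. Compounds were tested as 10-point half-log series in duplicate; IC50 values are geometric means from at least two independent experiments.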
# SW48 cells = experiment: Proliferation assay SW48 (CellTiterGlo, 96 hours)
# DLD1-WRN-KO cells = experiment: Proliferation assay DLD1-WRN-KO (CellTiterGlo, 96 hours; off-target effects); conditions: read-out: Proliferation Assay DLD1-WRN-KO (GI50)
# [1] = Homo sapiens, SW48, read-out: Proliferation Assay SW48 (GI50)
# [2] = read-out: Proliferation Assay SW48 (GI50), SW48 cell line, geometric means of at least 2 determinations
# [3] = DLD1-WRN-KO cell line, geometric means of at least 2 determinations
# Chain of WRN helicase (Q14191 517-1238): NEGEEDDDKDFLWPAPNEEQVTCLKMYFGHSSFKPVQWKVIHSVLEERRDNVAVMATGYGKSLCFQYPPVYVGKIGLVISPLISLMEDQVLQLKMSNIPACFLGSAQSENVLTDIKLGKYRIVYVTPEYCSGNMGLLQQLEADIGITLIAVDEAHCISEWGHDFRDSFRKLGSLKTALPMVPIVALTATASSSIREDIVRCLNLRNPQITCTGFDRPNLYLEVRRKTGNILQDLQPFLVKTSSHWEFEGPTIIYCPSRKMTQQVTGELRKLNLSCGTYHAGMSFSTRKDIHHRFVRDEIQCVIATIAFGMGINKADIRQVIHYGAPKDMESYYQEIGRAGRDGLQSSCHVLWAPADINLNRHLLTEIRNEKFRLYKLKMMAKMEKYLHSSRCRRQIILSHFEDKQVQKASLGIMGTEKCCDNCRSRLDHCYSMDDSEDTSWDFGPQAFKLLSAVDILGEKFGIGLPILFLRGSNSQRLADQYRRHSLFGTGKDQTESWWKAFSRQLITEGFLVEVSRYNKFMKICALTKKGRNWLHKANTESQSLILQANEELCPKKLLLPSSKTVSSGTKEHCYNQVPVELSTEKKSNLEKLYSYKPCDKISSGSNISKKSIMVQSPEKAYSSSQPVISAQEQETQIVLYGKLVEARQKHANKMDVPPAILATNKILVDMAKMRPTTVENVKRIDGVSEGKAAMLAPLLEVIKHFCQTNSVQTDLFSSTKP
Structure (SMILES),IC50 (WRN helicase),GI50 (SW48 cells; [1]),GI50 (DLD1-WRN-KO cells; Homo sapiens),GI50 (SW48 cells; [2]),GI50 (DLD1-WRN-KO cells; [3])
"CCc1c(N2CCN(C(=O)c3ncccc3O)CC2)c(=O)n2nc(C3=CCOCC3)nc2n1CC(=O)Nc1cc(F)c(C(F)(F)F)cc1Cl [Example 116, N-(2-chloro-5-fluoro-4-(trifluoromethyl)phenyl)-2-(2-(3,6-dihydro-2H-pyran-4-yl)-5-ethyl-6-(4-(3-hydroxypicolinoyl)piperazin-1-yl)-7-oxo-[1,2,4]triazolo[1,5-a]pyrimidin-4(7H)-yl)acetamide]",60 nM,80 nM,6600 nM,,
"CCc1c(N2CCN(C(=O)c3ncnc(C)c3O)C[C@H]2C)c(=O)n2nc(C3=CCOCC3)nc2n1CC(=O)Nc1ccc(C(F)(F)F)cc1Cl [Example 88, (R)—N-(2-chloro-4-(trifluoromethyl)phenyl)-2-(2-(3,6-dihydro-2H-pyran-4-yl)-5-ethyl-6-(4-(5-hydroxy-6-methylpyrimidine-4-carbonyl)-2-methylpiperazin-1-yl)-7-oxo-[1,2,4]triazolo[1,5-a]pyrimidin-4(7H)-yl)acetamide]",370 nM,760 nM,> 10000 nM,,
"CCc1c(N2CCN(C(=O)c3ncccc3O)CC2)c(=O)n2nc(C3=CCOCC3)nc2n1CC(=O)Nc1ccc(C(F)(F)F)cc1F [Example 92, 2-(2-(3,6-dihydro-2H-pyran-4-yl)-5-ethyl-6-(4-(3-hydroxypicolinoyl)piperazin-1-yl)-7-oxo-[1,2,4]triazolo[1,5-a]pyrimidin-4(7H)-yl)-N-(2-fluoro-4-(trifluoromethyl)phenyl)acetamide]",50 nM,80 nM,> 10000 nM,,
"CCc1c(N2CCN(C(=O)c3ncccc3O)CC2)c(=O)n2nc(C3=CC[C@H](OC)CC3)nc2n1CC(=O)Nc1ccc(C(F)(F)F)cc1 (single isomer, unassigned) [Example 81b, ((R)-2-(5-ethyl-6-(4-(3-hydroxypicolinoyl)piperazin-1-yl)-2-(4-methoxycyclohex-1-en-1-yl)-7-oxo-[1,2,4]triazolo[1,5-a]pyrimidin-4(7H)-yl)-N-(4-(trifluoromethyl)phenyl)acetamide or ((S)-2-(5-ethyl-6-(4-(3-hydroxypicolinoyl)piperazin-1-yl)-2-(4-methoxycyclohex-1-en-1-yl)-7-oxo-[1,2,4]triazolo[1,5-a]pyrimidin-4(7H)-yl)-N-(4-(trifluoromethyl)phenyl)acetamide]",40 nM,,,60 nM,> 10000 nM
"CCc1c(N2CCN(C(=O)c3ncccc3O)CC2)c(=O)n2nc(N3CCCC(F)C3)nc2n1CC(=O)Nc1ccc(C(F)(F)F)cc1Cl (racemic) [Example 15, rac-N-(2-chloro-4-(trifluoromethyl)phenyl)-2-(5-ethyl-2-(3-fluoropiperidin-1-yl)-6-(4-(3-hydroxypicolinoyl)piperazin-1-yl)-7-oxo-[1,2,4]triazolo[1,5-a]pyrimidin-4(7H)-yl)acetamide]",110 nM,440 nM,> 10000 nM,,
"CCc1c(N2CCN(C(=O)c3ncccc3O)CC2)c(=O)n2nc(C3=CCOCC3)nc2n1CC(=O)Nc1ccc(Cl)cc1Cl [Example 101, N-(2,4-dichlorophenyl)-2-(2-(3,6-dihydro-2H-pyran-4-yl)-5-ethyl-6-(4-(3-hydroxypicolinoyl)piperazin-1-yl)-7-oxo-[1,2,4]triazolo[1,5-a]pyrimidin-4(7H)-yl)acetamide]",100 nM,210 nM,> 10000 nM,,
"CCc1c(N2CCN(C(=O)c3ncccc3O)CC2)c(=O)n2nc(C3=CCOCC3)nc2n1CC(=O)Nc1cnc(C(F)(F)F)cc1Cl [Example 33, N-(4-chloro-6-(trifluoromethyl)pyridin-3-yl)-2-(2-(3,6-dihydro-2H-pyran-4-yl)-5-ethyl-6-(4-(3-hydroxypicolinoyl)piperazin-1-yl)-7-oxo-[1,2,4]triazolo[1,5-a]pyrimidin-4(7H)-yl)acetamide]",260 nM,220 nM,> 10000 nM,,
"CCc1c(N2CCN(C(=O)c3ncccc3O)CC2)c(=O)n2nc(N3CCN(CC(=O)O)CC3)nc2n1CC(=O)Nc1ccc(C(F)(F)F)cc1Cl [Example 82, 2-(4-(4-(2-((2-chloro-4-(trifluoromethyl)phenyl)amino)-2-oxoethyl)-5-ethyl-6-(4-(3-hydroxypicolinoyl)piperazin-1-yl)-7-oxo-4,7-dihydro-[1,2,4]triazolo[1,5-a]pyrimidin-2-yl)piperazin-1-yl)acetic acid]",280 nM,7720 nM,> 10000 nM,,
"CCc1c(N2CCN(C(=O)c3ncncc3O)CC2)c(=O)n2nc(C3=CCOCC3)nc2n1CC(=O)Nc1ccc(C(F)(F)F)cc1C [Example 64, 2-(2-(3,6-dihydro-2H-pyran-4-yl)-5-ethyl-6-(4-(5-hydroxypyrimidine-4-carbonyl)piperazin-1-yl)-7-oxo-[1,2,4]triazolo[1,5-a]pyrimidin-4(7H)-yl)-N-(2-methyl-4-(trifluoromethyl)phenyl)acetamide]",90 nM,480 nM,> 10000 nM,,
"CCc1c(N2CCN(C(=O)c3ncccc3O)CC2)c(=O)n2nc(N3CCC[C@H](F)C3)nc2n1CC(=O)Nc1ccc(C(F)(F)F)nc1Cl [Example 16b, (S)—N-(2-chloro-6-(trifluoromethyl)pyridin-3-yl)-2-(5-ethyl-2-(3-fluoropiperidin-1-yl)-6-(4-(3-hydroxypicolinoyl)piperazin-1-yl)-7-oxo-[1,2,4]triazolo[1,5-a]pyrimidin-4(7H)-yl)acetamide]",180 nM,230 nM,> 10000 nM,,
"Cc1ccc(O)c(C(=O)N2CCN(c3c(C)n(CC(=O)Nc4ccc(C(F)(F)F)cc4)c4nc(C5=CCOCC5)nn4c3=O)CC2)n1 [Example 91, 2-(2-(3,6-dihydro-2H-pyran-4-yl)-6-(4-(3-hydroxy-6-methylpicolinoyl)piperazin-1-yl)-5-methyl-7-oxo-[1,2,4]triazolo[1,5-a]pyrimidin-4(7H)-yl)-N-(4-(trifluoromethyl)phenyl)acetamide]",80 nM,320 nM,> 10000 nM,,
"CCc1c(N2CCN(C(=O)c3ncccc3O)CC2)c(=O)n2nc(N3CCC[C@@H](F)C3)nc2n1CC(=O)Nc1ccc(C(F)(F)F)cc1Cl (single isomer, unassigned) [Example 15a, ((R)—N-(2-chloro-4-(trifluoromethyl)phenyl)-2-(5-ethyl-2-(3-fluoropiperidin-1-yl)-6-(4-(3-hydroxypicolinoyl)piperazin-1-yl)-7-oxo-[1,2,4]triazolo[1,5-a]pyrimidin-4(7H)-yl)acetamide) or ((S)—N-(2-chloro-4-(trifluoromethyl)phenyl)-2-(5-ethyl-2-(3-fluoropiperidin-1-yl)-6-(4-(3-hydroxypicolinoyl)piperazin-1-yl)-7-oxo-[1,2,4]triazolo[1,5-a]pyrimidin-4(7H)-yl)acetamide)]",140 nM,,,400 nM,> 10000 nM
"CCc1c(N2CCN(C(=O)c3nccc(F)c3O)CC2)c(=O)n2nc(C3=CCOCC3)nc2n1CC(=O)Nc1ccc(C(F)(F)F)cc1C [Example 63, 2-(2-(3,6-dihydro-2H-pyran-4-yl)-5-ethyl-6-(4-(4-fluoro-3-hydroxypicolinoyl)piperazin-1-yl)-7-oxo-[1,2,4]triazolo[1,5-a]pyrimidin-4(7H)-yl)-N-(2-methyl-4-(trifluoromethyl)phenyl)acetamide]",110 nM,50 nM,> 10000 nM,,
"CCc1c(N2CCN(C(=O)c3nccc(F)c3O)CC2)c(=O)n2nc(C3=CCOCC3)nc2n1CC(=O)Nc1ccc(C(F)(F)F)nc1Cl [Example 48, N-(2-chloro-6-(trifluoromethyl)pyridin-3-yl)-2-(2-(3,6-dihydro-2H-pyran-4-yl)-5-ethyl-6-(4-(4-fluoro-3-hydroxypicolinoyl)piperazin-1-yl)-7-oxo-[1,2,4]triazolo[1,5-a]pyrimidin-4(7H)-yl)acetamide]",70 nM,80 nM,> 10000 nM,,
"CCc1c(N2CCN(C(=O)c3nccc(Cl)c3O)CC2)c(=O)n2nc(C3=CCOCC3)nc2n1CC(=O)Nc1ccc(C(F)(F)F)nc1Cl [Example 46, 2-(6-(4-(4-chloro-3-hydroxypicolinoyl)piperazin-1-yl)-2-(3,6-dihydro-2H-pyran-4-yl)-5-ethyl-7-oxo-[1,2,4]triazolo[1,5-a]pyrimidin-4(7H)-yl)-N-(2-chloro-6-(trifluoromethyl)pyridin-3-yl)acetamide]",110 nM,110 nM,> 10000 nM,,
"CCc1c(N2C[C@@H](C)N(C(=O)c3ncnc(C)c3O)C[C@@H]2C)c(=O)n2nc(C3=CCOCC3)nc2n1CC(=O)Nc1ccc(C(F)(F)F)cc1Cl [Example 118, N-(2-chloro-4-(trifluoromethyl)phenyl)-2-(2-(3,6-dihydro-2H-pyran-4-yl)-5-ethyl-6-((2S,5R)-4-(5-hydroxy-6-methylpyrimidine-4-carbonyl)-2,5-dimethylpiperazin-1-yl)-7-oxo-[1,2,4]triazolo[1,5-a]pyrimidin-4(7H)-yl)acetamide]",90 nM,450 nM,> 10000 nM,,
"CCc1c(N2CCN(C(=O)c3ncccc3O)CC2)c(=O)n2nc(N3CCC[C@@H](F)C3)nc2n1CC(=O)Nc1ccc(C(F)(F)F)nc1Cl [Example 16a, (R)—N-(2-chloro-6-(trifluoromethyl)pyridin-3-yl)-2-(5-ethyl-2-(3-fluoropiperidin-1-yl)-6-(4-(3-hydroxypicolinoyl)piperazin-1-yl)-7-oxo-[1,2,4]triazolo[1,5-a]pyrimidin-4(7H)-yl)acetamide]",190 nM,340 nM,> 10000 nM,,
